In ChEMBL document CHEMBL4414608, “Secophragmalin-Type Limonoids from Trichilia connaroides: Isolation, Semisynthesis, and Their Cytotoxic Activities” (J Nat Prod, 2019):
Calls of active or inactive are those of the source. The calls are words filed in the database; no cut-off is given here.

How the values were obtained:
COLO 205 = assay: Cytotoxicity against human COLO205 cells assessed as cell growth inhibition measured after 24 hrs by MTT assay; type: functional, cell-based; conditions: COLO 205, 24 h
DU-145 [1] = assay: Cytotoxicity against human DU145 cells assessed as cell growth inhibition measured after 24 hrs by MTT assay; type: functional, cell-based; conditions: DU-145, 24 h
SK-OV-3 = assay: Cytotoxicity against human SKOV3 cells assessed as cell growth inhibition measured after 24 hrs by MTT assay; type: functional, cell-based; conditions: SK-OV-3, 24 h
HeLa = assay: Cytotoxicity against human HeLa cells assessed as cell growth inhibition measured after 24 hrs by MTT assay; type: functional, cell-based
A549 = assay: Cytotoxicity against human A549 cells assessed as cell growth inhibition measured after 24 hrs by MTT assay; type: functional, cell-based; conditions: A549, 24 h
DU-145 [2] = assay: Induction of apoptosis in human DU145 cells assessed as live cells at 6 uM measured after 24 hrs by Annexin-V/FITC and propidium iodide staining based flow cytometry (reference value: 95.62 %); type: functional
DU-145 [3] = assay: Induction of apoptosis in human DU145 cells assessed as necrotic cells at 6 uM measured after 24 hrs by Annexin-V/FITC and propidium iodide staining based flow cytometry (reference value: 2.64 %); type: functional
DU-145 [4] = assay: Induction of apoptosis in human DU145 cells assessed as necrotic cells at 3.6 uM measured after 24 hrs by Annexin-V/FITC and propidium iodide staining based flow cytometry (reference value: 2.64 %); type: functional
DU-145 [5] = assay: Induction of apoptosis in human DU145 cells assessed as live cells at 3.6 uM measured after 24 hrs by Annexin-V/FITC and propidium iodide staining based flow cytometry (reference value: 95.62 %); type: functional
DU-145 [6] = assay: Induction of apoptosis in human DU145 cells assessed as late apoptotic cells at 3.6 uM measured after 24 hrs by Annexin-V/FITC and propidium iodide staining based flow cytometry (reference value: 1.49 %); type: functional
DU-145 [7] = assay: Induction of apoptosis in human DU145 cells assessed as increase in total apoptotic cells measured after 24 hrs by Annexin-V/FITC and propidium iodide staining based flow cytometry; type: functional, cell-based
DU-145 [8] = assay: Induction of apoptosis in human DU145 cells assessed as early apoptotic cells at 3.6 uM measured after 24 hrs by Annexin-V/FITC and propidium iodide staining based flow cytometry (reference value: 0.25 %); type: functional
DU-145 [9] = assay: Induction of apoptosis in human DU145 cells assessed as late apoptotic cells at 6 uM measured after 24 hrs by Annexin-V/FITC and propidium iodide staining based flow cytometry (reference value: 1.49 %); type: functional
DU-145 [10] = assay: Cell cycle arrest in human DU145 cells assessed as accumulation at G0/G1 phase at 3.6 uM measured after 24 hrs by RNase A/propidium iodide staining based flow cytometry analysis (reference value: 51.75 %); type: functional
DU-145 [11] = assay: Induction of apoptosis in human DU145 cells assessed as early apoptotic cells at 6 uM measured after 24 hrs by Annexin-V/FITC and propidium iodide staining based flow cytometry (reference value: 0.25 %); type: functional
DU-145 [12] = assay: Induction of apoptosis in human DU145 cells assessed as necrotic cells at 4.2 uM measured after 24 hrs by Annexin-V/FITC and propidium iodide staining based flow cytometry (reference value: 2.64 %); type: functional
DU-145 [13] = assay: Cell cycle arrest in human DU145 cells assessed as accumulation at G0/G1 phase at 4.2 uM measured after 24 hrs by RNase A/propidium iodide staining based flow cytometry analysis (reference value: 51.75 %); type: functional
DU-145 [14] = assay: Induction of apoptosis in human DU145 cells assessed as early apoptotic cells at 7 uM measured after 24 hrs by Annexin-V/FITC and propidium iodide staining based flow cytometry (reference value: 0.25 %); type: functional
DU-145 [15] = assay: Induction of apoptosis in human DU145 cells assessed as late apoptotic cells at 4.2 uM measured after 24 hrs by Annexin-V/FITC and propidium iodide staining based flow cytometry (reference value: 1.49 %); type: functional
DU-145 [16] = assay: Induction of apoptosis in human DU145 cells assessed as early apoptotic cells at 4.2 uM measured after 24 hrs by Annexin-V/FITC and propidium iodide staining based flow cytometry (reference value: 0.25 %); type: functional
DU-145 [17] = assay: Induction of apoptosis in human DU145 cells assessed as late apoptotic cells at 7 uM measured after 24 hrs by Annexin-V/FITC and propidium iodide staining based flow cytometry (reference value: 1.49 %); type: functional
DU-145 [18] = assay: Induction of apoptosis in human DU145 cells assessed as live cells at 7 uM measured after 24 hrs by Annexin-V/FITC and propidium iodide staining based flow cytometry (reference value: 95.62 %); type: functional
DU-145 [19] = assay: Induction of apoptosis in human DU145 cells assessed as live cells at 4.2 uM measured after 24 hrs by Annexin-V/FITC and propidium iodide staining based flow cytometry (reference value: 95.62 %); type: functional
DU-145 [20] = assay: Induction of apoptosis in human DU145 cells assessed as necrotic cells at 7 uM measured after 24 hrs by Annexin-V/FITC and propidium iodide staining based flow cytometry (reference value: 2.64 %); type: functional
DU-145 [21] = assay: Induction of apoptosis in human DU145 cells assessed as late apoptotic cells at 4.8 uM measured after 24 hrs by Annexin-V/FITC and propidium iodide staining based flow cytometry (reference value: 1.49 %); type: functional
DU-145 [22] = assay: Induction of apoptosis in human DU145 cells assessed as live cells at 4.8 uM measured after 24 hrs by Annexin-V/FITC and propidium iodide staining based flow cytometry (reference value: 95.62 %); type: functional
DU-145 [23] = assay: Induction of apoptosis in human DU145 cells assessed as early apoptotic cells at 4.8 uM measured after 24 hrs by Annexin-V/FITC and propidium iodide staining based flow cytometry (reference value: 0.25 %); type: functional
DU-145 [24] = assay: Induction of apoptosis in human DU145 cells assessed as necrotic cells at 4.8 uM measured after 24 hrs by Annexin-V/FITC and propidium iodide staining based flow cytometry (reference value: 2.64 %); type: functional
DU-145 [25] = assay: Cell cycle arrest in human DU145 cells assessed as accumulation at G2/M phase at 4.8 uM measured after 24 hrs by RNase A/propidium iodide staining based flow cytometry analysis; type: functional

Row | Structure (SMILES) | IC50 (COLO 205) | IC50 (DU-145 [1]) | IC50 (SK-OV-3) | IC50 (HeLa) | IC50 (A549) | also measured
1 | COC(=O)[C@H](O)[C@@H]1[C@@]2(C)C[C@@H]3O[C@@](O)(C=C4C5=CC(=O)O[C@@H](c6ccoc6)[C@]5(C)CC[C@@H]4[C@@]31C)[C@H]2O | > 100 µM | > 100 µM | > 100 µM | > 100 µM | 9.6 µM | 
2 | C/C=C(\C)C(=O)O[C@@H]1[C@]2(OC(=O)CC)C=C3C4=CC(=O)O[C@@H](c5ccoc5)[C@]4(C)CC[C@@H]3[C@@]3(C)[C@H](C[C@]1(C)[C@H]3[C@@H](OC(=O)CC)C(=O)OC)O2 | > 100 µM | > 100 µM | > 100 µM | > 100 µM | > 100 µM | 
3 | C/C=C(\C)C(=O)O[C@@H]1[C@]2(OC(=O)CC)C=C3C4=CC(=O)O[C@@H](c5ccoc5)[C@]4(C)CC[C@@H]3[C@@]3(C)[C@H](C[C@]1(C)[C@H]3[C@@H](O)C(=O)OC)O2 | > 100 µM | 6.7 µM | > 100 µM | > 100 µM | > 100 µM | 
4 | C/C=C(\C)C(=O)O[C@@H]1[C@]2(OC(=O)C3CC3)C=C3C4=CC(=O)O[C@@H](c5ccoc5)[C@]4(C)CC[C@@H]3[C@@]3(C)[C@H](C[C@]1(C)[C@H]3[C@@H](O)C(=O)OC)O2 | > 100 µM | > 100 µM | > 100 µM | > 100 µM | 11.8 µM | 
5 | CCOC(=O)[C@H](O)[C@@H]1[C@@]2(C)C[C@@H]3O[C@@](O)(C=C4C5=CC(=O)O[C@@H](c6ccoc6)[C@]5(C)CC[C@@H]4[C@@]31C)[C@H]2O | > 100 µM | 3.6 µM | > 100 µM | > 100 µM | 16.3 µM | Activity (DU-145 [2]): 89.27%; Activity (DU-145 [3]): 3.42%; Activity (DU-145 [4]): 2.8%; Activity (DU-145 [5]): 90.97%; Activity (DU-145 [6]): 5.39%; Activity (DU-145 [7]): Dose-dependent effect; Activity (DU-145 [8]): 0.84%; Activity (DU-145 [9]): 6.45%; Activity (DU-145 [10]): 47.2%; Activity (DU-145 [11]): 0.86%
6 | C/C=C(\C)C(=O)O[C@H]1[C@]2(C)C[C@@H]3O[C@@]1(O)C=C1C4=CC(=O)O[C@@H](c5ccoc5)[C@]4(C)CC[C@@H]1[C@]3(C)[C@@H]2[C@@H](OC(C)=O)C(=O)OC | > 100 µM | > 100 µM | > 100 µM | > 100 µM | > 100 µM | 
7 | C/C=C(\C)C(=O)O[C@H]1[C@]2(C)C[C@@H]3O[C@@]1(O)C=C1C4=CC(=O)O[C@@H](c5ccoc5)[C@]4(C)CC[C@@H]1[C@]3(C)[C@@H]2C(=O)C(=O)OC | > 100 µM | > 100 µM | > 100 µM | > 100 µM | 44.4 µM | 
8 | C/C=C(\C)C(=O)O[C@@H]1C(=O)/C=C2/C3=CC(=O)O[C@@H](c4ccoc4)[C@]3(C)CC[C@@H]2[C@@]2(C)C(=O)C[C@]1(C)[C@@H]2[C@@H](O)C(=O)OC | > 100 µM | 10.5 µM | > 100 µM | > 100 µM | > 100 µM | 
9 | C/C=C(\C)C(=O)O[C@H]1[C@]2(C)C[C@@H]3O[C@@]1(O)C=C1C4=CC(=O)O[C@@H](c5ccoc5)[C@]4(C)CC[C@@H]1[C@]3(C)[C@@H]2[C@@H](O)C(=O)OC | > 100 µM | 7.7 µM | > 100 µM | > 100 µM | 8.1 µM | 
10 | C/C=C(\C)C(=O)O[C@@H]1[C@]2(OC(=O)CCCC)C=C3C4=CC(=O)O[C@@H](c5ccoc5)[C@]4(C)CC[C@@H]3[C@@]3(C)[C@H](C[C@]1(C)[C@H]3[C@@H](OC(=O)CCCC)C(=O)OC)O2 | > 100 µM | 4.2 µM | > 100 µM | > 100 µM | 5.5 µM | Activity (DU-145 [12]): 2.45%; Activity (DU-145 [13]): 53.27%; Activity (DU-145 [14]): 0.92%; Activity (DU-145 [15]): 3.39%; Activity (DU-145 [16]): 0.86%; Activity (DU-145 [17]): 5.73%; Activity (DU-145 [7]): Dose-dependent effect; Activity (DU-145 [18]): 89.44%; Activity (DU-145 [19]): 93.3%; Activity (DU-145 [20]): 3.91%
11 | COc1cccc2c1C(=O)c1c(O)c3c(c(O)c1C2=O)C[C@@](O)(C(=O)CO)C[C@@H]3O[C@H]1C[C@H](N)[C@H](O)[C@H](C)O1 [DOXORUBICIN] | 3.8 µM | 4.8 µM | 3 µM | 7.9 µM | 5.3 µM | Activity (DU-145 [21]): 10.77%; Activity (DU-145 [22]): 84.42%; Activity (DU-145 [23]): 2.41%; Activity (DU-145 [24]): 2.4%; Activity (DU-145 [25]): Active
12 | C/C=C(\C)C(=O)O[C@@H]1[C@]2(OC(=O)C3CC3)C=C3C4=CC(=O)O[C@@H](c5ccoc5)[C@]4(C)CC[C@@H]3[C@@]3(C)[C@H](C[C@]1(C)[C@H]3[C@@H](OC(=O)C1CC1)C(=O)OC)O2 | > 100 µM | > 100 µM | > 100 µM | > 100 µM | > 100 µM | 
13 | C/C=C(\C)C(=O)O[C@@H]1[C@]2(OC(=O)c3ccco3)C=C3C4=CC(=O)O[C@@H](c5ccoc5)[C@]4(C)CC[C@@H]3[C@@]3(C)[C@H](C[C@]1(C)[C@H]3[C@@H](OC(=O)c1ccco1)C(=O)OC)O2 | > 100 µM | 17.8 µM | > 100 µM | > 100 µM | 7.6 µM | 
14 | C/C=C(\C)C(=O)O[C@@H]1[C@]2(OC(=O)C(C)C)C=C3C4=CC(=O)O[C@@H](c5ccoc5)[C@]4(C)CC[C@@H]3[C@@]3(C)[C@H](C[C@]1(C)[C@H]3[C@@H](OC(=O)C(C)C)C(=O)OC)O2 | > 100 µM | > 100 µM | > 100 µM | > 100 µM | > 100 µM | 
